Tests used:
NCI-H378 = assay: SANGER: Inhibition of human NCI-H378 cell growth in a cell viability assay.; type: functional, cell-based
TC-YIK = assay: SANGER: Inhibition of human TC-YIK cell growth in a cell viability assay.; type: functional, cell-based
EW-12 = assay: SANGER: Inhibition of human EW-12 cell growth in a cell viability assay.; type: functional, cell-based
NCI-H250 = assay: SANGER: Inhibition of human NCI-H250 cell growth in a cell viability assay.; type: functional, cell-based
NCI-H128 = assay: SANGER: Inhibition of human NCI-H128 cell growth in a cell viability assay.; type: functional, cell-based
DMS-53 = assay: cells; type: functional, cell-based, Homo sapiens;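 also: cell viability assay measuring growth inhibition of human DMS-53 cells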
Description: SANGER: Inhibition of human DMS-53 cell growth in a cell viability assay.

RT-4 = assay: SANGER: Inhibition of human RT4 cell growth in a cell viability assay.; type: functional, cell-based
NCI-H1975 = assay: cells; type: functional, cell-based; conditions: Homo sapiens
Description: SANGER: Inhibition of human NCI-H1975 cell growth in a cell viability assay.

Caov-4 = assay: cells; type: functional, cell-based; conditions: Homo sapiens
Description: SANGER: Inhibition of human Caov-4 cell growth in a cell viability assay.

SK-MEL-5 = assay: SANGER: Inhibition of human SK-MEL-5 cell growth in a cell viability assay.; type: functional, cell-based
SK-MG-1 = assay: SANGER: Inhibition of human SK-MG-1 cell growth in a cell viability assay.; type: functional, cell-based
NCI-H2107 = assay: SANGER: Inhibition of human NCI-H2107 cell growth in a cell viability assay.; type: functional, cell-based
CRO-AP2 = assay: SANGER: Inhibition of human CRO-AP2 cell growth in a cell viability assay.; type: functional, cell-based
KP-N-RT-BM-1 = assay: SANGER: Inhibition of human KP-N-RT-BM-1 cell growth in a cell viability assay.; type: functional, cell-based
CP67-MEL = assay: SANGER: Inhibition of human CP67-MEL cell growth in a cell viability assay.; type: functional, cell-based

SMILES | IC50 (EW-12) | IC50 (NCI-H128) | IC50 (DMS-53; Homo sapiens, DMS-53) | IC50 (RT-4; Homo sapiens, RT-4) | IC50 (NCI-H2107) | further results
C=C1C(=O)O[C@@H]2C3O[C@]3(C)CC/C=C(\C)CC[C@@H]12 (stereo partly specified) | > 5 µM | > 5 µM | – | – | – | IC50 (NCI-H378): > 5 µM; IC50 (TC-YIK): > 5 µM; IC50 (NCI-H250): > 5 µM
COC(=O)CNC(=O)C(=O)OC | – | – | 181 µM | 649 µM | – | –
CN(C)C/C=C/C(=O)Nc1cc2c(Nc3ccc(F)c(Cl)c3)ncnc2cc1O[C@H]1CCOC1 [AFATINIB] | – | – | – | – | – | IC50 (NCI-H1975): > 0.5 µM
Cc1cc([C@@H](C)Nc2ccccc2C(=O)O)c2nc(N3CCOCC3)cc(=O)n2c1 [AZD-6482] | – | – | > 5.12 µM | – | – | IC50 (Caov-4): > 5.12 µM; IC50 (DMS-53; dms-53): > 5.12 µM; IC50 (SK-MEL-5): > 5.12 µM; IC50 (SK-MG-1): > 5.12 µM; IC50 (RT-4; rt-4): > 5.12 µM; IC50 (NCI-H1975): > 5.12 µM
O=C(NOCC1CC1)c1ccc(F)c(F)c1Nc1ccc(I)cc1Cl [CI-1040] | – | – | – | – | – | IC50 (NCI-H1975): 6.47 µM
CC1=C2C[C@H]3[C@@H](CC=C4C[C@@H](O)CC[C@@]43C)[C@@H]2CC[C@]12O[C@@H]1C[C@H](C)CN[C@H]1[C@H]2C [CYCLOPAMINE] | > 16 µM | > 16 µM | – | – | > 16 µM | –
Nc1ccn([C@@H]2O[C@H](CO)[C@@H](O)[C@@H]2O)c(=O)n1 [CYTARABINE] | – | – | – | – | – | IC50 (NCI-H1975): > 2 µM
COc1cc([C@@H]2c3cc4c(cc3[C@@H](O[C@@H]3O[C@@H]5CO[C@@H](C)O[C@H]5[C@H](O)[C@H]3O)[C@H]3COC(=O)[C@H]23)OCO4)cc(OC)c1O [ETOPOSIDE] | – | – | > 16 µM | > 16 µM | – | IC50 (Caov-4): > 16 µM
Cc1cnc(-c2cnc(NCCNc3ccc(C#N)cn3)nc2-c2ccc(Cl)cc2Cl)[nH]1 [LADUVIGLUSIB] | – | – | > 2.56 µM | > 2.56 µM | – | IC50 (Caov-4): > 2.56 µM
CS(=O)(=O)CCNCc1ccc(-c2ccc3ncnc(Nc4ccc(OCc5cccc(F)c5)c(Cl)c4)c3c2)o1 [LAPATINIB] | > 2 µM | > 2 µM | – | – | > 2 µM | –
C[C@]1(O)C[C@@H](c2nc(-c3ccc4ccc(-c5ccccc5)nc4c3)c3c(N)nccn32)C1 [LINSITINIB] | – | – | > 2.56 µM | > 2.56 µM | – | –
C=CCc1cccc(/C=N/NC(=O)CN2CCN(Cc3ccccc3)CC2)c1O [PAC-1] | – | – | > 2.56 µM | > 2.56 µM | – | –
Cc1ccc(Nc2nccc(N(C)c3ccc4c(C)n(C)nc4c3)n2)cc1S(N)(=O)=O [PAZOPANIB] | – | – | > 8 µM | > 8 µM | – | –
CN(c1ncccc1CNc1nc(Nc2ccc3c(c2)CC(=O)N3)ncc1C(F)(F)F)S(C)(=O)=O [PF-00562271] | – | – | > 2.56 µM | > 2.56 µM | – | IC50 (Caov-4): > 2.56 µM
CCc1nc(N)nc(N)c1-c1ccc(Cl)cc1 [PYRIMETHAMINE] | > 20 µM | > 20 µM | – | – | > 20 µM | IC50 (CRO-AP2): 18.7 µM
O=C(/C=C/c1ccccc1)NC(NC(=S)Nc1cccc2cccnc12)C(Cl)(Cl)Cl (stereo unspecified) [SALUBRINAL] | > 16 µM | > 16 µM | – | – | > 16 µM | –
CN1CCN(CCOc2cc(OC3CCOCC3)c3c(Nc4c(Cl)ccc5c4OCO5)ncnc3c2)CC1 [SARACATINIB] | > 2 µM | > 2 µM | – | – | > 2 µM | IC50 (KP-N-RT-BM-1): > 2 µM; IC50 (CP67-MEL): > 2 µM; IC50 (CRO-AP2): > 2 µM
Cn1cc(C2=C(c3ccc(Cl)cc3Cl)C(=O)NC2=O)c2ccccc21 [SB-216763] | – | – | – | – | – | IC50 (NCI-H1975): > 10 µM
CO[C@H]1C[C@@H]2CC[C@@H](C)[C@@](O)(O2)C(=O)C(=O)N2CCCC[C@H]2C(=O)O[C@H]([C@H](C)C[C@@H]2CC[C@@H](O)[C@H](OC)C2)CC(=O)[C@H](C)/C=C(\C)[C@@H](O)[C@@H](OC)C(=O)[C@H](C)C[C@H](C)/C=C/C=C/C=C/1C [SIROLIMUS] | > 0.1 µM | > 0.1 µM | – | – | – | IC50 (KP-N-RT-BM-1): > 0.1 µM; IC50 (TC-YIK): > 0.1 µM; IC50 (CP67-MEL): > 0.1 µM
CNC(=O)c1cc(Oc2ccc(NC(=O)Nc3ccc(Cl)c(C(F)(F)F)c3)cc2)ccn1 [SORAFENIB] | > 4 µM | > 4 µM | – | – | > 4 µM | IC50 (CRO-AP2): > 4 µM
Cn1cncc1[C@@](N)(c1ccc(Cl)cc1)c1ccc2c(c1)c(-c1cccc(Cl)c1)cc(=O)n2C [TIPIFARNIB] | – | – | > 16 µM | 10.9 µM | – | –
CCC(=O)N1CCN(c2ccc(-n3c(=O)ccc4cnc5ccc(-c6cnc7ccccc7c6)cc5c43)cc2C(F)(F)F)CC1 [TORIN1] | > 1.2 µM | > 1.2 µM | – | – | 1.17 µM | IC50 (KP-N-RT-BM-1): > 1.2 µM; IC50 (CP67-MEL): 0.0376 µM
Cc1cc(Nc2cc(N3CCN(C)CC3)nc(Sc3ccc(NC(=O)C4CC4)cc3)n2)n[nH]1 [TOZASERTIB] | > 2 µM | > 2 µM | – | – | > 2 µM | IC50 (KP-N-RT-BM-1): > 2 µM; IC50 (CP67-MEL): > 2 µM
CCC1=C[C@@H]2CN(C1)Cc1c([nH]c3ccccc13)[C@@](C(=O)OC)(c1cc3c(cc1OC)N(C)[C@H]1[C@@](O)(C(=O)OC)[C@H](OC(C)=O)[C@]4(CC)C=CCN5CC[C@]31[C@@H]54)C2 [VINORELBINE] | – | – | > 0.064 µM | > 0.064 µM | – | IC50 (Caov-4): > 0.064 µM

Source: ChEMBL document CHEMBL1201861, “Genomics of Drug Sensitity in Cancer screening data, Wellcome Trust Sanger Institute”
